From ChEMBL document CHEMBL3585282, “Discovery of Highly Isoform Selective Thiazolopiperidine Inhibitors of Phosphoinositide 3-Kinase γ” (J Med Chem, 2015)
≈ marks a conversion by molar mass, not a printed value.

Key:
[1] = Thermodynamic solubility in water at 5 mg incubated for 48 hrs by HPLC method; assay type: physicochemical; conditions: read-out: Therm_solubility
[2] = Thermodynamic solubility in FaSSIF at pH 6.5 at 5 mg incubated for 48 hrs by HPLC method; assay type: physicochemical; conditions: read-out: Therm_solubility
[3] = Stability in human liver microsomes assessed as compound remaining at 5 uM in presence of NADPH after 30 mins by LC-MS/MS method; assay type: ADME; conditions: read-out: Stability
[4] = Stability in dog liver microsomes assessed as compound remaining at 5 uM in presence of NADPH after 30 mins by LC-MS/MS method; assay type: ADME, Canis lupus familiaris; conditions: read-out: Stability
[5] = Stability in rat liver microsomes assessed as compound remaining at 5 uM in presence of NADPH after 30 mins by LC-MS/MS method; assay type: ADME; conditions: read-out: Stability

| solubility thermodynamic at 48 h [1] [mg/mL] | solubility thermodynamic at 48 h [2] [mg/mL] | remaining at 0.5 h, 5 µM [3] [%] | remaining at 0.5 h, 5 µM [4] [%] | remaining at 0.5 h, 5 µM [5] [%] | SMILES |
| --- | --- | --- | --- | --- | --- |
| 0.0121 (≈ 39.8 µM) | 0.0094 (≈ 30.9 µM) |  |  |  | COc1cncc(N2CCc3nc(NC(C)=O)sc3C2)c1 |
|  |  | 61 | 84 | 100 | COc1cc(N2CCc3nc(NC(=O)NCCc4cn(CC(F)F)cn4)sc3C2)cnc1Cl |
